The term IC50 denotes the midpoint of a concentration-inhibition curve.

For 37 molecules, IC50 results are on record in patent US8487093B2, “β-lactamase inhibitors” (Merck Sharp & Dohme Corp., priority 2008, dated 2013).

One test addresses KPC-2 (K. pneumoniae) (Klebsiella pneumoniae, UniProt Q9F663). Description: biochemical.
In the next test the target is AmpC (P. aeruginosa) (Pseudomonas aeruginosa (strain ATCC 15692 / DSM 22644 / CIP 104116 / JCM 14847 / LMG 12228 / 1C / PRS 101 / PAO1), UniProt P24735). The experiment in a line: biochemical. The method, then:
The Class C enzyme activities were measured in the presence of the test inhibitor in spectrophotometric assay against the commercially available substrate, nitrocefin. The enzyme AmpC (P. aeruginosa.), and the substrate, were dissolved in 100 mM KH2PO4 buffer (pH 7). The buffer also contains 0.005% BSA. The test inhibitor was dissolved in DMSO and diluted 1:20 in the assay, resulting in a final concentration range of 50 μM to 0.0002 μM. In a 96-well microplate, the test inhibitor was incubated with the beta-lactamase enzyme for 40 minutes at ambient temperature, the substrate solution was added, and the incubation continued for another 40 minutes. […] The IC50 value was determined from semi logarithmic plots of enzyme inhibition versus inhibitor concentration, with a curve generated using a 4-parameter fit.

[1] abbreviates: Table 3, read-out: K.p. KPC-2 IC50.
The mark [2] stands for this setting: Table 3, read-out: P.a. AmpC IC50.

Where two headings read alike, the source gives them in different places.

Chain of AmpC (P. aeruginosa) (P24735 27-397): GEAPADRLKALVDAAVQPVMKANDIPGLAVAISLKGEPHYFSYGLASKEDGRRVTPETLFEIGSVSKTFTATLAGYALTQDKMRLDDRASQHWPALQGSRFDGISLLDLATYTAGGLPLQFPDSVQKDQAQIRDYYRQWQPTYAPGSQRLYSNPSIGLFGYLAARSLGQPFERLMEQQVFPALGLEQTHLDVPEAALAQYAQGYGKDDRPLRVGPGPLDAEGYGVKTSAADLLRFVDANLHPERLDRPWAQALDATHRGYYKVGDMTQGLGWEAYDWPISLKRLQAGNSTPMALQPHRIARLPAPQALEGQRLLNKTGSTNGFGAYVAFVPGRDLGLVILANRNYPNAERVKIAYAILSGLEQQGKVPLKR
Chain of KPC-2 (K. pneumoniae) (Q9F663 25-293 limits assumed): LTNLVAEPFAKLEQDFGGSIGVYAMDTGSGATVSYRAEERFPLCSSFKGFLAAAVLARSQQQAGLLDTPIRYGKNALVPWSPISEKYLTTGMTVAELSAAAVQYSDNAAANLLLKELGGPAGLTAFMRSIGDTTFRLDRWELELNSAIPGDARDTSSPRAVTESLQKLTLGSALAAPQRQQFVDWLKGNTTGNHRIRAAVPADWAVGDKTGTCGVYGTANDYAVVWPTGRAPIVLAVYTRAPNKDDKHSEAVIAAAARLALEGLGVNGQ

On to `NCc1ccnc(NC(=O)[C@@H]2CC[C@@H]3CN2C(=O)N3OS(=O)(=O)O)c1` [Example 76], for which the half-maximal inhibitory concentration (IC50) on KPC-2 (K. pneumoniae) (setting [1]) stood at 1300 nM; at AmpC (P. aeruginosa) (setting [2]) it was 2 nM.
Consider `O=C(N[C@H]1CCCNC[C@H]1F)[C@@H]1CC[C@@H]2CN1C(=O)N2OS(=O)(=O)O` [Example 36], for which the half-maximal inhibitory concentration (IC50) at KPC-2 (K. pneumoniae) (setting [1]) amounted to 130 nM; on AmpC (P. aeruginosa) (setting [2]), 18 nM.
The matching figures for `O=C(Nc1cc(N2CCCC2)nc(N2CCCC2)c1)[C@@H]1CC[C@@H]2CN1C(=O)N2OS(=O)(=O)O` [Example 73]: 130 nM and 515 nM.
`O=C(Nc1cccc(C2CCNCC2)n1)[C@@H]1CC[C@@H]2CN1C(=O)N2OS(=O)(=O)O` [Example 79]: the IC50 at KPC-2 (K. pneumoniae) (setting [1]) was found to be 24 nM; at AmpC (P. aeruginosa) (setting [2]) it was 270 nM.
As to `CO[C@H]1CNCC[C@H]1NC(=O)[C@@H]1CC[C@@H]2CN1C(=O)N2OS(=O)(=O)O` [Example 26], the IC50 at KPC-2 (K. pneumoniae) (K.p. KPC-2 IC50, Table 3) turned out to be 290 nM; at AmpC (P. aeruginosa), 120 nM.
Take `O=C(OCCC1CCNCC1)[C@@H]1CC[C@@H]2CN1C(=O)N2OS(=O)(=O)O` [Example 112]: the IC50 came to 13 nM at KPC-2 (K. pneumoniae) (setting [1]) and 165 nM against AmpC (P. aeruginosa).
On to `O=C(NCCN1CCCCC1)[C@@H]1CC[C@@H]2CN1C(=O)N2OS(=O)(=O)O` [Example 45], for which the IC50 at KPC-2 (K. pneumoniae) (setting [1]) worked out at 150 nM; at AmpC (P. aeruginosa) (setting [2]), 180 nM.
The corresponding values for `O=C(OCC1CNCCCO1)[C@@H]1CC[C@@H]2CN1C(=O)N2OS(=O)(=O)O` (stereo partly shown) [Example 114] are 11 nM and 340 nM.
The corresponding values for `CN(C(=O)[C@@H]1CC[C@@H]2CN1C(=O)N2OS(=O)(=O)O)C1CCNCC1` [Example 48] are 2500 nM and 290 nM.
The matching figures for `CN(C)Cc1ccc(NC(=O)[C@@H]2CC[C@@H]3CN2C(=O)N3OS(=O)(=O)O)cc1` [Example 62]: 54 nM and 18 nM.
As to `CN1CCN=C1NC(=O)[C@@H]1CC[C@@H]2CN1C(=O)N2OS(=O)(=O)O` [Example 87], the results for the half-inhibitory concentration (IC50) on KPC-2 (K. pneumoniae) (setting [1]) and at AmpC (P. aeruginosa) (setting [2]) were 840 nM and 200 nM, respectively.
In the case of `O=C(O[C@H]1CNC[C@@H]1F)[C@@H]1CC[C@@H]2CN1C(=O)N2OS(=O)(=O)O` [Example 106], the half-maximal inhibitory concentration (IC50) on KPC-2 (K. pneumoniae) (setting [1]) was 10 nM; against AmpC (P. aeruginosa) it was 200 nM.
For the molecule `O=C(NC1CCCNC1)[C@@H]1CC[C@@H]2CN1C(=O)N2OS(=O)(=O)O` (single isomer, unassigned) [Example 19b], the half-maximal inhibitory concentration (IC50) at KPC-2 (K. pneumoniae) (setting [1]) worked out at 240 nM; on AmpC (P. aeruginosa) (setting [2]), 480 nM.
Take `O=C(Nc1nc2c(s1)CNCC2)[C@@H]1CC[C@@H]2CN1C(=O)N2OS(=O)(=O)O` [Example 89]: the IC50 at KPC-2 (K. pneumoniae) (setting [1]) stood at 39 nM; at AmpC (P. aeruginosa) (setting [2]), 10 nM.
Take `O=C(O[C@H]1CNC[C@H]1F)[C@@H]1CC[C@@H]2CN1C(=O)N2OS(=O)(=O)O` [Example 104]: the results for the IC50 on KPC-2 (K. pneumoniae) (setting [1]) and on AmpC (P. aeruginosa) were 24 nM and 38 nM, respectively.
For `O=C([C@@H]1CC[C@@H]2CN1C(=O)N2OS(=O)(=O)O)N1CC2CNCC2C1` (stereo partly shown) [Example 53], the IC50 amounted to 33 nM at KPC-2 (K. pneumoniae) (setting [1]) and 1000 nM at AmpC (P. aeruginosa).
With `O=C(N[C@@H]1CNC[C@@H]1F)[C@@H]1CC[C@@H]2CN1C(=O)N2OS(=O)(=O)O` [Example 31], the concentration for half-maximal inhibition (IC50) came to 190 nM against KPC-2 (K. pneumoniae) (K.p. KPC-2 IC50, Table 3) and 150 nM on AmpC (P. aeruginosa).
For the molecule `CN(C)C1CCN(C(=O)[C@@H]2CC[C@@H]3CN2C(=O)N3OS(=O)(=O)O)C1` (stereo partly shown) [Example 56], the 50% inhibitory concentration (IC50) on KPC-2 (K. pneumoniae) (setting [1]) is 1600 nM; at AmpC (P. aeruginosa) (setting [2]), 270 nM.
With `O=C(OC1CCNCC1)[C@@H]1CC[C@@H]2CN1C(=O)N2OS(=O)(=O)O` [Example 93], the concentration for half-maximal inhibition (IC50) worked out at 9 nM at KPC-2 (K. pneumoniae) (setting [1]) and 170 nM against AmpC (P. aeruginosa).
Take `O=C(Nc1ccc(C2CCNCC2)cn1)[C@@H]1CC[C@@H]2CN1C(=O)N2OS(=O)(=O)O` [Example 17, (2S,5R)-7-Oxo-N-(5-piperidin-4-ylpyridin-2-yl)-6-(sulfooxy)-1,6-diazabicyclo[3.2.1]octane-2-carboxamide]: at AmpC (P. aeruginosa) (setting [2]), the concentration for half-maximal inhibition (IC50) came out at 6 nM.
On to `NCc1ccc(NC(=O)[C@@H]2CC[C@@H]3CN2C(=O)N3OS(=O)(=O)O)cc1` [Example 57], for which the figures for the IC50 on KPC-2 (K. pneumoniae) (setting [1]) and at AmpC (P. aeruginosa) (setting [2]) were 72 nM and 20 nM, respectively.
For `O=C(O[C@@H]1CCNC[C@H]1F)[C@@H]1CC[C@@H]2CN1C(=O)N2OS(=O)(=O)O` [Example 99], the figures for the IC50 at KPC-2 (K. pneumoniae) (setting [1]) and on AmpC (P. aeruginosa) (setting [2]) were 8 nM and 40 nM, respectively.
The matching figures for `NCCOC(=O)[C@@H]1CC[C@@H]2CN1C(=O)N2OS(=O)(=O)O` [Example 110]: 30 nM and 610 nM.
As for `O=C(Nc1ccccn1)[C@@H]1CC[C@@H]2CN1C(=O)N2OS(=O)(=O)O` [Example 72], the IC50 at KPC-2 (K. pneumoniae) (setting [1]) came to 36 nM; on AmpC (P. aeruginosa) (setting [2]), 1.2 nM.
The matching figures for `O=C(O[C@@H]1CCCNCC1)[C@@H]1CC[C@@H]2CN1C(=O)N2OS(=O)(=O)O` [Example 92]: 6400 nM and 33000 nM.
Take `O=C(N[C@@H]1CCCNCC1)[C@@H]1CC[C@@H]2CN1C(=O)N2OS(=O)(=O)O` [Example 22]: the concentration for half-maximal inhibition (IC50) at KPC-2 (K. pneumoniae) (setting [1]) came out at 225 nM; against AmpC (P. aeruginosa), 520 nM.
As to `O=C(O)c1ccc(NC(=O)[C@@H]2CC[C@@H]3CN2C(=O)N3OS(=O)(=O)O)cc1` [Example 67], the IC50 at KPC-2 (K. pneumoniae) (setting [1]) amounted to 10 nM; on AmpC (P. aeruginosa) (setting [2]), 11 nM.
As for `O=C(O[C@@H]1CNOC1)[C@@H]1CC[C@@H]2CN1C(=O)N2OS(=O)(=O)O` [Example 108], the IC50 was 11 nM on KPC-2 (K. pneumoniae) (setting [1]) and 62 nM on AmpC (P. aeruginosa) (setting [2]).
On to `O=C(NC[C@H]1CNCCCO1)[C@@H]1CC[C@@H]2CN1C(=O)N2OS(=O)(=O)O` [Example 43], for which the 50% inhibitory concentration (IC50) on KPC-2 (K. pneumoniae) (K.p. KPC-2 IC50, Table 3) came out at 100 nM; on AmpC (P. aeruginosa), 15 nM.
In the case of `O=C(Nc1ccc2c(c1)CCNC2)[C@@H]1CC[C@@H]2CN1C(=O)N2OS(=O)(=O)O` [Example 16, (2S,5R)-7-Oxo-6-(sulfooxy)-N-(1,2,3,4-tetrahydroisoquinolin-6-yl)-1,6-diazabicyclo[3.2.1]octane-2-carboxamide], the figures for the IC50 on KPC-2 (K. pneumoniae) (setting [1]) and at AmpC (P. aeruginosa) were 19 nM and 14 nM, respectively.
On to `O=C(O[C@@H]1CCNC[C@@H]1F)[C@@H]1CC[C@@H]2CN1C(=O)N2OS(=O)(=O)O` [Example 97], for which the IC50 at KPC-2 (K. pneumoniae) (setting [1]) is 26 nM; at AmpC (P. aeruginosa) (setting [2]) it was 49 nM.
The matching figures for `N[C@@H]1CNC[C@H]1NC(=O)[C@@H]1CC[C@@H]2CN1C(=O)N2OS(=O)(=O)O` [Example 28]: 660 nM and 740 nM.
For the molecule `O=C([C@@H]1CC[C@@H]2CN1C(=O)N2OS(=O)(=O)O)N1CC2(CCNCC2)C1` [Example 52], the concentration for half-maximal inhibition (IC50) on KPC-2 (K. pneumoniae) (setting [1]) amounted to 1000 nM; on AmpC (P. aeruginosa), 590 nM.
In the case of `NCC1CCCCN1C(=O)[C@@H]1CC[C@@H]2CN1C(=O)N2OS(=O)(=O)O` (stereo partly shown) [Example 49], the IC50 at KPC-2 (K. pneumoniae) (setting [1]) came to 780 nM; on AmpC (P. aeruginosa) (setting [2]), 7500 nM.
Turning to `O=C(N[C@@H]1CCNC1)[C@@H]1CC[C@@H]2CN1C(=O)N2OS(=O)(=O)O` [Example 21], the 50% inhibitory concentration (IC50) against KPC-2 (K. pneumoniae) (K.p. KPC-2 IC50, Table 3) worked out at 4300 nM; at AmpC (P. aeruginosa) (setting [2]) it was 29100 nM.
As to `O=C(O[C@@H]1CNC[C@H]1F)[C@@H]1CC[C@@H]2CN1C(=O)N2OS(=O)(=O)O` [Example 105], the figures for the IC50 at KPC-2 (K. pneumoniae) (setting [1]) and against AmpC (P. aeruginosa) were 13 nM and 200 nM, respectively.
Turning to `CC(=O)Oc1ccc(C(=O)NCC(CNC(=O)c2ccc(OC(C)=O)c(OC(C)=O)c2)OC(=O)[C@@H]2CC[C@@H]3CN2C(=O)N3OS(=O)(=O)O)cc1OC(C)=O` [Example 117], the IC50 at KPC-2 (K. pneumoniae) (setting [1]) was found to be 12 nM; at AmpC (P. aeruginosa) (setting [2]) it was 61 nM.
